28 molecules from patent US10100058B2, “Fused heterocyclic compounds as CaM kinase inhibitors” (Gilead Sciences, Inc., priority 2016, dated 2018) can be followed below.

The assay addresses recombinant CaMKIIδ (Homo sapiens (Human), UniProt Q13557). Kind of assay: CaMKIIδ biochemical assay (HTRF). Conditions: 10 pM CaMKIIδ, 110 nM calmodulin, 12 μM ATP, 1 hour; read-out: CAMKIID-HTRF-384V2 (IC50 - nM). On the procedure: CaMKIIδ Biochemical Assay
The biochemical activity of recombinant CaMKIIδ was measured by monitoring the phosphorylation of a target peptide using Homogenous Time Resolved Fluorescence (HTRF) technology from CisBio Bioassays.
(Time-resolved FRET reads energy transfer from a long-lived donor to a nearby acceptor.)

Structures are written as SMILES.

What is called IC50 is the concentration needed to halve the response being measured. `CCN(CC)[C@@H](C)CNC(=O)c1cc(-c2cnn3ccc(-c4cccs4)nc23)nc(N2CC[C@H]2C(=O)N2CC(S(C)(=O)=O)C2)c1` [Example 302, N—((S)-2-(diethylamino)propyl)-2-((S)-2-(3-(methylsulfonyl)azetidine-1-carbonyl)azetidin-1-yl)-6-(5-(thiophen-2-yl)pyrazolo[1,5-a]pyrimidin-3-yl)isonicotinamide]: the IC50 worked out at 0.2 nM.
`CCN(CC)[C@@H](C)CNC(=O)c1cc(-c2cnn3ccc(-c4cccs4)nc23)nc(N2CC(NC(=O)N(C)C)C2)c1` [Example 195, (S)—N-(2-(diethylamino)propyl)-2-(3-(3,3-dimethylureido)azetidin-1-yl)-6-(5-(thiophen-2-yl)pyrazolo[1,5-a]pyrimidin-3-yl)isonicotinamide]: the IC50 worked out at 0.28 nM.
The result for `CCN(CC)[C@@H](C)CNC(=O)c1cc(-c2cnn3ccc(-c4cccs4)nc23)nc(N2CC(S(=O)(=O)NC)C2)c1` [Example 150, (S)—N-(2-(diethylamino)propyl)-2-(3-(N-methylsulfamoyl)azetidin-1-yl)-6-(5-(thiophen-2-yl)pyrazolo[1,5-a]pyrimidin-3-yl)isonicotinamide] reads 0.2 nM.
For the molecule `CCN(CC)[C@@H](C)CNC(=O)c1cc(-c2cnn3ccc(-c4cccs4)nc23)nc(N2CC[C@H]2C(=O)N2CC(C)(C)C2)c1` [Example 292, N—((S)-2-(diethylamino)propyl)-2-((S)-2-(3,3-dimethylazetidine-1-carbonyl)azetidin-1-yl)-6-(5-(thiophen-2-yl)pyrazolo[1,5-a]pyrimidin-3-yl)isonicotinamide], the IC50 turned out to be 0.58 nM.
In the case of `CCN(CC)[C@@H](C)CNC(=O)c1cc(O[C@H]2CCOC2)nc(-c2cnn3ccc(-c4cccs4)nc23)c1` [Example 345, N—((S)-2-(diethylamino)propyl)-2-(((S)-tetrahydrofuran-3-yl)oxy)-6-(5-(thiophen-2-yl)pyrazolo[1,5-a]pyrimidin-3-yl)isonicotinamide], the IC50 is 1.22 nM.
For `COCCNc1cc(C(=O)N2CC3CCC(C2)NC3)cc(-c2cnn3ccc(-c4cccs4)nc23)n1` (stereo not shown) [Example 323, (-3,6-diazabicyclo[3.2.2]nonan-3-yl)(2-((2-methoxyethyl)amino)-6-(5-(thiophen-2-yl)pyrazolo[1,5-a]pyrimidin-3-yl)pyridin-4-yl)methanone] the value was 3.22 nM.
Take `CN1CCC[C@H]1CNC(=O)c1ccnc(-c2cnn3ccc(-c4cccs4)nc23)c1` [Example 35, (S)—N-((1-methylpyrrolidin-2-yl)methyl)-2-(5-(thiophen-2-yl)pyrazolo[1,5-a]pyrimidin-3-yl)isonicotinamide]: the IC50 came out at 95.5 nM.
The result for `CCN[C@@H](C)CNC(=O)c1ccnc(-c2cnn3ccc(-c4cccs4)nc23)c1` [Example 20, (S)—N-(2-(ethylamino)propyl)-2-(5-(thiophen-2-yl)pyrazolo[1,5-a]pyrimidin-3-yl)isonicotinamide] reads 4.97 nM; that for `CCN(CC)[C@@H](C)CNC(=O)c1cc(-c2cnn3ccc(-c4cccs4)nc23)nc(N2CCC[C@@H]2COC)c1` [Example 273, N—((S)-2-(diethylamino)propyl)-2-((R)-2-(methoxymethyl)pyrrolidin-1-yl)-6-(5-(thiophen-2-yl)pyrazolo[1,5-a]pyrimidin-3-yl)isonicotinamide], 1.43 nM.
`CCN(CC)[C@@H](C)CNC(=O)c1cc(-c2cnn3ccc(-c4cccs4)nc23)nc(C(C)C)c1` [Example 104, (S)—N-(2-(diethylamino)propyl)-2-isopropyl-6-(5-(thiophen-2-yl)pyrazolo[1,5-a]pyrimidin-3-yl)isonicotinamide]: the IC50 was 3.96 nM.
For `NC[C@H]1CCCCN1C(=O)c1cc(-c2cnn3ccc(-c4ccccc4)nc23)nc(C(F)(F)F)c1` [Example 116, (R)-(2-(aminomethyl)piperidin-1-yl)(2-(5-phenylpyrazolo[1,5-a]pyrimidin-3-yl)-6-(trifluoromethyl)pyridin-4-yl)methanone] the value was 5.89 nM; for `CCN(CC)[C@@H](C)CNC(=O)c1cc(-c2cnn3ccc(-c4cccs4)nc23)nc(N2CC(NC(=O)C3CC3)C2)c1` [Example 196, (S)-2-(3-(cyclopropanecarboxamido)azetidin-1-yl)-N-(2-(diethylamino)propyl)-6-(5-(thiophen-2-yl)pyrazolo[1,5-a]pyrimidin-3-yl)isonicotinamide], 0.22 nM; for `C[C@@]1(CNC(=O)c2ccnc(-c3cnn4ccc(-c5cccs5)nc34)c2)CCCN1` [Example 12, (S)—N-((2-methylpyrrolidin-2-yl)methyl)-2-(5-(thiophen-2-yl)pyrazolo[1,5-a]pyrimidin-3-yl)isonicotinamide], 14.9 nM.
The result for `CCN(CC)[C@@H](C)CNC(=O)c1cc(OCc2ccc[n+]([O-])c2)nc(-c2cnn3ccc(-c4cccs4)nc23)c1` [Example 355, (S)-3-(((4-((2-(diethylamino)propyl)carbamoyl)-6-(5-(thiophen-2-yl)pyrazolo[1,5-a]pyrimidin-3-yl)pyridin-2-yl)oxy)methyl)pyridine 1-oxide] reads 0.54 nM; that for `CCN(CC)[C@@H](C)CNC(=O)c1cc(-c2cnn3ccc(-c4cccs4)nc23)nc(N2CC[C@@H](C(=O)NC)C2)c1` [Example 311, N—((S)-2-(diethylamino)propyl)-2-((R)-3-(methylcarbamoyl)pyrrolidin-1-yl)-6-(5-(thiophen-2-yl)pyrazolo[1,5-a]pyrimidin-3-yl)isonicotinamide], 0.23 nM.
The result for `CCN(CC)[C@@H](C)CNC(=O)c1cc(-c2cnn3ccc(-c4cccs4)nc23)nc(N2C[C@H](O)[C@@H](O)C2)c1` [Example 243, N—((S)-2-(diethylamino)propyl)-2-((3S,4S)-3,4-dihydroxypyrrolidin-1-yl)-6-(5-(thiophen-2-yl)pyrazolo[1,5-a]pyrimidin-3-yl)isonicotinamide] reads 0.14 nM.
Consider `CCCC(CNC(=O)c1ccnc(-c2cnn3ccc(-c4ccccc4)nc23)c1)N(CC)CC` (stereo not shown) [Example 60, N-(2-(diethylamino)pentyl)-2-(5-phenylpyrazolo[1,5-a]pyrimidin-3-yl)isonicotinamide], for which the IC50 is 2.35 nM.
The result for `C[C@H](N)[C@@H]1CCCCN1C(=O)c1ccnc(-c2cnn3ccc(-c4ccccc4)nc23)c1` [Example 90, ((S)-2-((S)-1-aminoethyl)piperidin-1-yl)(2-(5-phenylpyrazolo[1,5-a]pyrimidin-3-yl)pyridin-4-yl)methanone] reads 58.5 nM; that for `CCN(CC)[C@@H](C)CNC(=O)c1cc(-c2cnn3ccc(-c4cccs4)nc23)nc(N2CC[C@H]2C(=O)N(C)C)c1` [Example 279, N—((S)-2-(diethylamino)propyl)-2-((S)-2-(dimethylcarbamoyl)azetidin-1-yl)-6-(5-(thiophen-2-yl)pyrazolo[1,5-a]pyrimidin-3-yl)isonicotinamide], 0.17 nM.
For `CCN[C@@H](C)CNC(=O)c1cc(C)nc(-c2cnn3ccc(-c4ccccc4)nc23)c1` [Example 120, (S)—N-(2-(ethylamino)propyl)-2-methyl-6-(5-phenylpyrazolo[1,5-a]pyrimidin-3-yl)isonicotinamide] the value was 41.8 nM; for `CCN[C@@H](C)CNC(=O)c1cc(-c2cnn3ccc(-c4ccccc4)nc23)nc(N2CC(OC)C2)c1` [Example 174, (S)—N-(2-(ethylamino)propyl)-2-(3-methoxyazetidin-1-yl)-6-(5-phenylpyrazolo[1,5-a]pyrimidin-3-yl)isonicotinamide], 35.2 nM; for `CCN(CC)[C@@H](C)CNC(=O)c1cc(O[C@@H]2CCOC2)nc(-c2cnn3ccc(-c4cccs4)nc23)c1` [Example 346, N—((S)-2-(diethylamino)propyl)-2-(((R)-tetrahydrofuran-3-yl)oxy)-6-(5-(thiophen-2-yl)pyrazolo[1,5-a]pyrimidin-3-yl)isonicotinamide], 1.07 nM.
As to `CCN(CC)[C@@H](C)CNC(=O)c1cc(-c2cnn3ccc(-c4cccs4)nc23)nc(N2CCn3ccnc3C2)c1` [Example 155, (S)—N-(2-(diethylamino)propyl)-2-(5,6-dihydroimidazo[1,2-a]pyrazin-7(8H)-yl)-6-(5-(thiophen-2-yl)pyrazolo[1,5-a]pyrimidin-3-yl)isonicotinamide], the IC50 was 0.32 nM.
The result for `C[C@H](N)CNC(=O)c1cc(-c2cnn3ccc(-c4cccs4)nc23)nc(N2CC(O)C2)c1` [Example 168, (S)—N-(2-aminopropyl)-2-(3-hydroxyazetidin-1-yl)-6-(5-(thiophen-2-yl)pyrazolo[1,5-a]pyrimidin-3-yl)isonicotinamide] reads 18.1 nM; that for `CCN(CC)[C@@H](C)CNC(=O)c1cc(NC(=O)C(C)C)nc(-c2cnn3ccc(-c4cccs4)nc23)c1` [Example 189, (S)—N-(2-(diethylamino)propyl)-2-isobutyramido-6-(5-(thiophen-2-yl)pyrazolo[1,5-a]pyrimidin-3-yl)isonicotinamide], 0.45 nM.
Consider `CCN(CC)[C@@H](C)CNC(=O)c1cc(NCCN(C)C)nc(-c2cnn3ccc(-c4cccs4)nc23)c1` [Example 157, (S)—N-(2-(diethylamino)propyl)-2-((2-(dimethylamino)ethyl)amino)-6-(5-(thiophen-2-yl)pyrazolo[1,5-a]pyrimidin-3-yl)isonicotinamide], for which the IC50 was determined as 0.07 nM.
The result for `COC1CN(c2cc(C(=O)N3C4CC[C@@H]3CCNC4)cc(-c3cnn4ccc(-c5ccccc5)nc34)n2)C1` (stereo in doubt) [Example 330, (-3,9-diazabicyclo[4.2.1]nonan-9-yl)(2-(3-methoxyazetidin-1-yl)-6-(5-phenylpyrazolo[1,5-a]pyrimidin-3-yl)pyridin-4-yl)methanone] reads 44.6 nM.
For `CCN(CC)[C@@H](C)CNC(=O)c1cc(NC2CCOCC2)nc(-c2cnn3ccc(-c4cccs4)nc23)c1` [Example 222, (S)—N-(2-(diethylamino)propyl)-2-((tetrahydro-2H-pyran-4-yl)amino)-6-(5-(thiophen-2-yl)pyrazolo[1,5-a]pyrimidin-3-yl)isonicotinamide] the value was 0.17 nM.
